Results: US11357748B2, “Methods for treating mendelian disorders of the epigenetic machinery” (THE JOHNS HOPKINS UNIVERSITY, priority 2014, dated 2022)

Tested on: H3K4 trimethylation machinery (H3K4me3 indicator)
Assay: H3K4 trimethylation (H3K4me3) indicator reporter allele, FACS
Type: cell-based
Text: An H3K4 trimethylation reporter was also created (FIG. 5B). This reporter is based on the H3 tail on one end and the TBP associated factor III (TAFIII) […] on the other end; the TAFIII […] only identifies and binds to trimethylated K4 on H3. When the H3K4 site gets trimethylated, the TAFIII […] can bind to the modified H3 tail and bring the two parts of the separated GFP in close proximity. The activity of the epigenetic modification system can be quantified through fluorescence.
Epigenetic reporter alleles were synthesized (OriGene, Rockville, Md.) using published sequences for component elements (Baird et al. (1999) Proc. Natl. Acad. Sci. 96:11241-6; Souslova et al. (2007) BMC Biotechnol. 7:37). Single nucleotide mutations were created using the QuickChange Lightening kit (Agilent Technologies Inc, Santa Clara, Calif.). […] FACS data were analyzed using FlowJo (Tree Star Inc, Ashland, Oreg.). […]
Epigenetic reporter systems were created that monitor either H4 acetylation or H3K4 trimethylation machinery activity in an effort to determine whether there is an ongoing activity deficiency in cells from Kmt2d^+/βGeo mice (FIG. 18A). Both reporter alleles encode halves of green fluorescent protein separated by a flexible linker region (Baird et al. (1999) Proc. Natl. Acad. Sci. 96: 11241-6) with a histone tail and a histone reader at the N- and C-termini, respectively. […]

cell numbers (at higher doses, FIG. 18F (red line)): decreased cell numbers
Compound: CC(C)[C@H](C(=O)Nc1ccc(C(=O)NO)cc1)c1ccccc1 [AR-42, (S)—N-hydroxy-4-(3-methyl-2-phenylbutanamido)benzamide]
H3K4me3 indicator response to increasing levels of drug (FIG. 18F): dose dependent response
